# Test results reported in patent publication US10149841B2, “Compound of 3-hydroxyl pyridine, preparation method thereof and pharmaceutical use thereof” (SHENYANG SUNSHINE PHARMACEUTICAL CO. LTD., priority 2015, dated 2018).
# Biological target: HIF Prolyl hydroxylases 2 (PHD2) (Homo sapiens (Human), UniProt Q9GZT9)
# Experiment: Inhibitory effect on PHD2 by fluorescence polarization (HIF-1α / VBC complex interaction)
# Assay type: biochemical
# Details: PHD2 0.5 μg/μl, FAM-HIF (556-575) 1 μM, FP readout with GST-VBC complex
# Method: Biological Example 2: Detection of Inhibitory Effect of the Compounds on PHD2 (IC50)
# The interaction between hypoxia-inducible factor HIF-1α and VBC complex (von Hippel-Lindau protein-Elongin B-Elongin C, VBC) was detected by Fluorescence polarization (FP) method, to measure the enzyme inhibitory activity of the HIF Prolyl hydroxylases 2 (PHD2) inhibitor compounds.
# To a NETN (20 mM Tris.HCl, 100 mM NaCl, 1 mM EDTA, 0.5% NP-40, 1 mM PMSF) buffer containing 200 μM ascorbic acid, 20 μM α-ketoglutaric acid, 100 μM FeCl2 was added FAM-HIF (556-575) at a final concentration of 1 μM in the dark. Subsequently, the desired concentration of the test compound or the positive compound was added (the compound was replaced by the buffer in the negative control and the positive control). Finally, PHD2 was added at a final concentration of 0.5 μg/μl (PHD2 was replaced by the buffer in the negative control). They were mixed well and allowed to stand at room temperature for 30 minutes in the dark followed by 95° C. water bath for 1 minute, and then the reaction was terminated. After the temperature drops to room temperature, the sample was prepared well for use. EBC buffer (50 mM Tris.HCl, 120 mM NaCl, 0.5% NP-40) was added to the corresponding wells of a black 96-well test plate. A GST-VBC complex was added to the corresponding test wells at a final concentration of 300 nM (using the wells containing only EBC buffer as blank wells). Subsequently, the corresponding PHD2 prolyl hydroxylation reaction sample was added in the dark as a substrate with a final concentration of 100 nM. After mixing well, the lateral and longitudinal fluorescence intensity values were measured using a full-wavelength multifunctional microplate reader (TECAN infinite M1000) at an excitation wavelength of […] and an emission wavelength of 518 nm.
# The fluorescence polarization (mP) was calculated: mP=1000×(lateral value−G factor×longitudinal value)/(lateral value+G factor×longitudinal value)
# wherein, lateral value=lateral fluorescence intensity value of test well−lateral fluorescence intensity value of blank well, • longitudinal value=longitudinal fluorescence intensity value of test well−longitudinal fluorescence intensity value of blank well,
# PHD2 inhibition rate (%) of the test compound was calculated according to the following formula: Inhibition rate (%)=1−(mP test well−mP negative control well)/(mP positive control well−mP negative control well).
# The IC50 was calculated using the non-linear regression data analysis method of Graphpad Prism 4.0 software ([…]).
# Sequence of HIF Prolyl hydroxylases 2 (PHD2) (Q9GZT9 whole entry, species assumed): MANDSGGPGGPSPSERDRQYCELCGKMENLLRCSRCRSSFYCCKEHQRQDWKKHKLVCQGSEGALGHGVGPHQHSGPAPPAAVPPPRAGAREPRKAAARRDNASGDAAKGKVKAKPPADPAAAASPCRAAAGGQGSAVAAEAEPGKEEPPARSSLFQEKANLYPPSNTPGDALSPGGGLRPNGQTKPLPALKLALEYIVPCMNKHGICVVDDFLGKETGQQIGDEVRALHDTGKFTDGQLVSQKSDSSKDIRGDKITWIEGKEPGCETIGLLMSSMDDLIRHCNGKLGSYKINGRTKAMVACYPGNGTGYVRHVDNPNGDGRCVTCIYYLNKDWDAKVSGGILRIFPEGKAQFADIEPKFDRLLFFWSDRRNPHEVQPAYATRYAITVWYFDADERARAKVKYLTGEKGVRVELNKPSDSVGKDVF
row,IC50,Structure (SMILES)
1,236 µM,"O=C(O)CNC(=O)c1ncc(Oc2cccc(Cl)c2)cc1O [Compound 22, 2-(5-(3-chlorophenoxy)-3-hydroxypyridine-2-formamido) acetic acid]"
2,84 µM,"O=C(O)CNC(=O)c1ncc(Oc2ccccc2)cc1O [Compound 1, 2-(3-hydroxy-5-phenoxy-2-pyridylformamido) acetic acid]"
3,91 µM,"O=C(O)CNC(=O)c1ncc(Oc2ccc3ccccc3c2)cc1O [Compound 8, 2-(3-hydroxy-5-(naphthalen-2-oxo)pyridine-2-formamido) acetic acid]"

# Further lines, the compound ahead of its results:
row,Structure (SMILES),IC50
1,"Cc1ccc(Oc2cnc(C(=O)NCC(=O)O)c(O)c2)c(C)c1 [Compound 19, 2-(5-(2,4-dimethylphenoxy)-3-hydroxypyridine-2-formamido) acetic acid]",63 µM
2,"Cc1cccc(Oc2cnc(C(=O)NCC(=O)O)c(O)c2)c1C [Compound 5, 2-(5-(2,3-dimethylphenoxy)-3-hydroxypyridine-2-formamido) acetic acid]",237 µM
3,"O=C(O)CNC(=O)c1ncc(Oc2cccc(F)c2F)cc1O [Compound 9, 2-(5-(2,3-difluorophenoxy)-3-hydroxypyridine-2-formamido) acetic acid]",15 µM
